In one assay the target is T1, Beta-glucuronidase (Bos taurus, UniProt A3KMY8).
T1 sequence (A3KMY8 whole entry): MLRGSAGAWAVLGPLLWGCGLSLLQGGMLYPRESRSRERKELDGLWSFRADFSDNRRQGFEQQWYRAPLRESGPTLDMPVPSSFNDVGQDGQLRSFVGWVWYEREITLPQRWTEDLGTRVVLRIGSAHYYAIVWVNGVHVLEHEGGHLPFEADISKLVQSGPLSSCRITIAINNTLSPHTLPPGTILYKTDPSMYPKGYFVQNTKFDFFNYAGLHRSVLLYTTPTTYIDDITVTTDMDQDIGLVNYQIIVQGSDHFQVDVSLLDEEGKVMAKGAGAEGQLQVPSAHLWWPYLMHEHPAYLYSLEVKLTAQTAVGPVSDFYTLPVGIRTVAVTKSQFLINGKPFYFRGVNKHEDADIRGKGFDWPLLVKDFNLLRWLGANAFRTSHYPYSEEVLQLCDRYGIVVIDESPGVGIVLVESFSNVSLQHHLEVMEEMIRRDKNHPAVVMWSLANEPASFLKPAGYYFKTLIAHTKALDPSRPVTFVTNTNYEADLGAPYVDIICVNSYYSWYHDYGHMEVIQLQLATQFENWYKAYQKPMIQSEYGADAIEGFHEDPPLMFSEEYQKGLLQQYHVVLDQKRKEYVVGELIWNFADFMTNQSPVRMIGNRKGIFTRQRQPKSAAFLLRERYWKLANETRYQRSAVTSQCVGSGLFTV
In words: Inhibition of bovine liver beta glucuronidase using p-nitrophenyl-beta-D-glucuronide as substrate preincubated for 30 mins followed by substrate addition by spectrophotometric method.
Conditions: not given; call rule not given here
A word on the IC50: it is the concentration needed to halve the response being measured. With `CCCCOc1ccc(C(=O)OCCn2c([N+](=O)[O-])cnc2C)cc1`, the IC50 entry was “Not Active”.

As for `Cc1ncc([N+](=O)[O-])n1CCOC(=O)c1ccc2ccccc2c1`, the IC50 result was “Not Active”.

For `Cc1cccc(C(=O)OCCn2c([N+](=O)[O-])cnc2C)c1`, the IC50 entry is recorded as “Not Active”.

As for `Cc1ncc([N+](=O)[O-])n1CCOC(=O)c1cccc2ccccc12`, the IC50 result is “Not Active”.

The assay is the same for the next values; noted with them: read-out: IC50.
`Cc1ncc([N+](=O)[O-])n1CCOC(=O)c1ccc(Cl)c(Cl)c1`: the IC50 stood at 3.6 µM.

As to `COc1cc(OC)cc(C(=O)OCCn2c([N+](=O)[O-])cnc2C)c1`, the IC50 worked out at 60.3 µM.

Turning to `Cc1ncc([N+](=O)[O-])n1CCOC(=O)c1ccccc1Cl`, the IC50 was 19.3 µM.

Consider `COc1ccc(/C=C/C(=O)OCCn2c([N+](=O)[O-])cnc2C)cc1`, for which the IC50 is 31.1 µM.

Regarding `Cc1ncc([N+](=O)[O-])n1CCOC(=O)c1ccc(Br)cc1`, the IC50 stood at 42.6 µM.

For the compound `Cc1ncc([N+](=O)[O-])n1CCOC(=O)c1cc(Cl)ccc1Cl`, the IC50 stood at 6.2 µM.

Take `Cc1ncc([N+](=O)[O-])n1CCOC(=O)c1cccc([N+](=O)[O-])c1`: the IC50 turned out to be 27.6 µM.

For the compound `Cc1cc(C(=O)OCCn2c([N+](=O)[O-])cnc2C)ccc1[N+](=O)[O-]`, the IC50 was 7.3 µM.

`Cc1ccc(C(=O)OCCn2c([N+](=O)[O-])cnc2C)cc1`: the IC50 is 35.5 µM.

For the compound `Clc1ccc(-c2nc3ccccc3[nH]2)cc1Cl`, the IC50 worked out at 6.33 µM.

With `Cc1ccccc1C(=O)OCCn1c([N+](=O)[O-])cnc1C`, the IC50 is 44.2 µM.

In the case of `Cc1cc(C)cc(C(=O)OCCn2c([N+](=O)[O-])cnc2C)c1`, the IC50 was determined as 24.2 µM.

As for `Cc1ncc([N+](=O)[O-])n1CCOC(=O)c1ccc2ncsc2c1`, the IC50 is 8.4 µM.

Turning to `Cc1ncc([N+](=O)[O-])n1CCOC(=O)c1ccccc1Br`, the IC50 was 48.5 µM.

With `Cc1ncc([N+](=O)[O-])n1CCOC(=O)c1cccc(Cl)c1`, the IC50 came to 16.3 µM.

On to `Cc1ncc([N+](=O)[O-])n1CCOC(=O)c1ccc(F)cc1`, for which the IC50 amounted to 12.4 µM.

With `Cc1ncc([N+](=O)[O-])n1CCOC(=O)c1cccnc1`, the IC50 came to 32.6 µM.

In the case of `Cc1ncc([N+](=O)[O-])n1CCOC(=O)c1cccc(F)c1`, the IC50 was 8.1 µM.

As for `COc1ccc(C(=O)OCCn2c([N+](=O)[O-])cnc2C)cc1`, the IC50 was found to be 60.2 µM.

As for `Cc1ncc([N+](=O)[O-])n1CCOC(=O)c1ccc(F)cc1Br`, the IC50 was 6.3 µM.

Take `Cc1ncc([N+](=O)[O-])n1CCOC(=O)c1ccc([N+](=O)[O-])cc1`: the IC50 worked out at 8.9 µM.

`Cc1ncc([N+](=O)[O-])n1CCOC(=O)c1cc2ccccc2[nH]1`: the IC50 was 2.1 µM.

The next assay addresses T2, Beta-glucuronidase (Bos taurus) (UniProt A3KMY8).
T2 sequence (whole entry): T1 sequence (A3KMY8 whole entry)
In words: Potency index, ratio of D-saccharic acid 1,4-lactone IC50 to compound IC50 for bovine liver beta glucuronidase.
Conditions: not given
Consider `Cc1ncc([N+](=O)[O-])n1CCOC(=O)c1ccc(Cl)c(Cl)c1`, for which the Ratio IC50 was found to be 15.

With `Cc1cc(C(=O)OCCn2c([N+](=O)[O-])cnc2C)ccc1[N+](=O)[O-]`, the Ratio IC50 was 7.

With `Cc1ncc([N+](=O)[O-])n1CCOC(=O)c1ccc2ncsc2c1`, the Ratio IC50 turned out to be 6.

Take `Cc1ncc([N+](=O)[O-])n1CCOC(=O)c1cc2ccccc2[nH]1`: the Ratio IC50 was determined as 24.

The values above are taken from ChEMBL document CHEMBL4000175, “Biology-oriented drug synthesis (BIODS): In vitro β-glucuronidase inhibitory and in silico studies on 2-(2-methyl-5-nitro-1H-imidazol-1-yl)ethyl aryl carboxylate derivatives” (Eur J Med Chem, 2017).
